The record followed here is patent US9809634B2, “Composition comprising branched multipeptide vaccine and vaccine comprising the same” (INDUSTRY FOUNDATION OF CHONNAM NATIONAL UNIVERSITY, priority 2015, dated 2017).

The subject of the test is T2 cell line expressing HLA-A2. Kind of test: Binding capacity to T-lymphocyte of each subsequence residue (T2 cells, HLA-A2-FITC staining, flow cytometry). In kind it is cell-based, human. The following applies: T2 cells cultured overnight with peptide and beta2-microglobulin; FIG. 3; compared with the other subsequence residues of the same tumor antigen. On the procedure:
The binding capacity to T-lymphocyte, of each of the subsequence residues shown in Table 1 above, was measured (FIG. 3).
Measurement of binding capacity between T-lymphocyte and each of the subsequence residues
T2 cell line (Korea Cell Line Bank) is […] expressing HLA-A2. The peptide and beta2-microglobulin on T2 cells were cultured overnight, and the T2 cells were stained with antihuman HLA-A2-FITCmAb, and analyzed by a FACS Caliber flow cytometer and WinMDI software.
The binding capacity of subsequence residue was calculated from mean fluorescence with the peptide and mean fluorescence without the peptide according to the following Equation: […]

As for “LLLFGLLGV (Peptide CD99-9) [SEQ ID NO: 10]”, the “binding capacity to T-lymphocyte” value is reported as “most excellent”. For LMLGEFLKL [SEQ ID NO: 9] the value was “most excellent”.
